Values quoted from earlier work in patent publication US8030432B2, “Copolymerization of hydroxytyrosol with flavonoids mediated by horseradish peroxidases” (The United States of America as represented by the …, priority 2009, dated 2011).

Columns and labels:
[1] = addition of 300 mg/Kg; red meat and poultry

epigallocatechin-3-gallate [EGCG]
decomposition at room temperature: decompose at room temperature after a few minutes

catechin
inhibition of oxidation [1]: showed inhibition of oxidation
